Measured values as given in patent US8754057B2, “Inhibition of apoptosis-specific eIF-5A(eIF-5A1″) with antisense oligonucleotides and siRNA as anti-inflammatory therapeutics” (Senesco Technologies, Inc., priority 2003, dated 2014).

Test system: lamina cribrosa cell line #506
Assay: TUNEL labeling of siRNA-transfected LC cells treated with TNF-α and camptothecin
Format: cell-based, human
Conditions: LC #506, TNF-α and camptothecin 24 h
Experimental: Lamina cribrosa cell line #506 cells were seeded at 7500 cells per well onto an 8-well culture slide. Three days later the LC cells were transfected with either apoptosis-specific eIF-5A siRNA #1 (SEQ ID NO:30) or control siRNA #5 (SEQ ID NO:34). 72 hours after transfection, the transfected cells were treated with 10 ng/ml TNF-α plus 50 μM camptothecin. Twenty-four hours later the cells were stained with Hoescht 33258 and DNA fragmentation was evaluated in situ using the terminal deoxynucleotidyl transferase-mediated dUTP-digoxigenin nick end labeling (TUNEL) method. Panel A represents the slide observed by fluorescence microscopy using a fluorescein filter to visualize TUNEL-labeling of the fragmented DNA of apoptotic cells. Panel B represents the same slide observed by through a UV filter to visualize the Hoescht-stained nuclei. The results are representative of two independent experiments. All pictures were taken at 400 times magnification.
Transfected cells that had been treated with TNF-α and camptothecin for 24 hours were stained with Hoescht 33258 in order to determine the percentage of cells undergoing apoptosis. Briefly, cells were fixed with a 3:1 mixture of absolute methanol and glacial acetic acid and then incubated with Hoescht stain (0.5 μg/ml Hoescht 33258 in PBS). After a 10 minute incubation in the dark, the staining solution was discarded, the chambers separating the wells of the culture slide were removed, and the slide was washed 3 times for 1 minute with deionized water. After washing, a few drops of Mcllvaine's buffer (0.021 M citric acid, 0.058 M Na2HPO4.7H2O; pH 5.6) was added to the cells and overlaid with a coverslip. The stained cells were viewed under a fluorescent microscope using a UV filter. Cells with brightly stained or fragmented nuclei were scored as apoptotic. A minimum of 200 cells were counted per well. The DeadEnd™ Fluorometric TUNEL (Promega) was also used to detect the DNA fragmentation that is a characteristic feature of apoptotic cells. Following Hoescht staining, the culture slide was washed briefly with distilled water, and further washed by immersing the slide twice for 5 minutes in PBS (137 mM NaCl, 2.68 mM KCl, 1.47 mM KH2PO4, 8.1 mM Na2HPO4), blotting the slide on paper towel between washes. The cells were permeabilized by immersing them in 0.2% Triton X-100 in PBS for 5 minutes. The cells were then washed again by immersing the slide twice for 5 minutes in PBS and blotting the slide on paper towel between washes. 25 μl of equilibration buffer [200 mM potassium cacodylate (pH 6.6), 25 mM. Tris-HCl (pH 6.6), 0.2 mM dithiothreitol, 0.25 mg/ml bovine serum albumin, and 2.5 mM cobalt chloride] was added per well and incubated for 5 to 10 minutes. […] Any cells with brightly stained or fragmented nuclei were scored as apoptotic. […]

siRNA #1: siRNA against human apoptosis-specific eIF-5A (SEQ ID NO:30); target 5′ AAAGGAATGACTTCCAGCTGA 3′ (SEQ ID NO: 81) (AAAGGAAUGACUUCCAGCUGATT; RNA, all phosphodiester, T or U not given here; listed as Homo sapiens)
LC cells positive for TUNEL staining (3 days after transfection): 8%
protection from apoptosis relative to the control siRNA (TUNEL): greater than 80%
